The source of these data is patent US20030130203A1, “Medicament for combating respiratory depression” (priority 2000, published 2003).

The data set deals with awake male Sprague Dawley rats. The data set can be described thus: Measurement of respiratory rate on the awake rat. To be noted: i.v., measured immediately and up to 15 min. The data set is classed as in vivo. The procedure: Measurement of Respiratory Rate on the Awake Rat
To study the respiratory rate, awake male Sprague Dawley rats (Janvier, France) weighing 190 to 315 g were immobilized in Plexiglas tubes. For intravenous administration of the medicament solutions, the rats were each provided with a catheter in the caudal vein. The respiratory rate of the rats was measured via a water-filled balloon catheter located laterally between the rat and the Plexiglas tube. The balloon catheter was connected to a pressure sensor and a high-speed chart recorder (Gould, Dietzenbach).
After an equilibration period of 30 minutes, a baseline value for the respiratory rate was determined. The appropriate active ingredient solution was then administered intravenously and the respiratory rate was measured immediately and after 1, 2, 5, 10 and 15 minutes. Each rat received a single administration per day.

On to `CN1CC[C@]23c4c5ccc(O)c4O[C@H]2[C@@H](O)C=C[C@H]3[C@H]1C5` [Comparative Example 1, morphine], for which the respiratory rate entry (10 mg/kg morphine only in 0.9% saline) is “marked decrease in respiratory rate”.
Take `C[C@H]1SC[C@@H](C(=O)N[C@H](Cc2c[nH]cn2)C(=O)N2CCC[C@H]2C(N)=O)NC1=O` [Example 1, montirelin]: for the setting “0.215 mg/kg montirelin together with 10 mg/kg morphine in 0.9% saline”, the respiratory rate result is recorded as “no decrease in respiratory rate”.
